# According to PubChem BioAssay AID1963442 (Molecular Pharmacology Branch, DTP, NCI, 2024):
# pIC50: −log10 of the molar value. “And” between values parts separate entries of the source, which are not always exact repeats. Equal values may be shown once.
# Test system: MPNST complex spheroid with HUVEC/MSC, growth, % test/control
# Assay: Anticancer human tumor MPNST cell line growth inhibition [Asc];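 also: compounds left on spheroids for seven days before reading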
# Conditions: for viability, T/C: stronger effect = lower value
# Outline: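 Tumor cells were grown as multicellular spheroids with stromal HUVEC and mesenchymal stem cells and treated singly or in combination. Concentrations fell in half-log steps from the clinical Cmax, or from 10 microM where none was known.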
smiles,measurement,setting,value
O=C(c1ccc(F)c(F)c1Nc1ccc(I)cc1F)N1CC(O)([C@@H]2CCCCN2)C1,"viability, T/C",compound 0.00316 µM,100% and 84.6% and 73.2%
same,"viability, T/C",compound 0.01 µM,60.5% and 110% and 78.5%
same,"viability, T/C",compound 0.0316 µM,58.9% and 123% and 126%
same,"viability, T/C",compound 0.1 µM,65.1% and 103% and 84.6%
same,"viability, T/C",compound 0.316 µM,67.3% and 72% and 85.4%
same,"viability, T/C",compound 1 µM,13.1% and 29.3% and 32.3%
same,pIC50,curve of compound,6.35 and 6.24 and 6.17
C=CC(=O)N1CCN(c2nc(=O)n(-c3c(C)ccnc3C(C)C)c3nc(-c4c(O)cccc4F)c(F)cc23)C(C)C1 (centres undefined) + CCN1C(C(=O)NC23CCC(C(=O)O)(CC2)CC3)C(c2cccc(Cl)c2F)C2(C(=O)Nc3cc(Cl)ccc32)C12CCCCC2,pIC50,"curve of first compound, second compound 0.03 µM",< 5.00
same,pIC50,"curve of first compound, second compound 0.0949 µM",< 5.00
same,pIC50,"curve of first compound, second compound 0.3 µM",< 5.00
same,pIC50,"curve of first compound, second compound 0.949 µM",< 5.00
same,pIC50,"curve of first compound, second compound 3 µM",< 5.00
same,"viability, T/C","second compound 0.03 µM, first compound 0.0316 µM",62.4%
same,"viability, T/C","second compound 0.03 µM, first compound 0.1 µM",76.1%
same,"viability, T/C","second compound 0.03 µM, first compound 0.316 µM",73.3%
same,"viability, T/C","second compound 0.03 µM, first compound 1 µM",87.7%
same,"viability, T/C","second compound 0.03 µM, first compound 3.16 µM",106%
same,"viability, T/C","second compound 0.03 µM, first compound 10 µM",108%
same,"viability, T/C","second compound 0.0949 µM, first compound 0.0316 µM",84.9%
same,"viability, T/C","second compound 0.0949 µM, first compound 0.1 µM",85.3%
same,"viability, T/C","second compound 0.0949 µM, first compound 0.316 µM",99.8%
same,"viability, T/C","second compound 0.0949 µM, first compound 1 µM",103%
same,"viability, T/C","second compound 0.0949 µM, first compound 3.16 µM",98.8%
same,"viability, T/C","second compound 0.0949 µM, first compound 10 µM",124%
same,"viability, T/C","second compound 0.3 µM, first compound 0.0316 µM",75.7%
same,"viability, T/C","second compound 0.3 µM, first compound 0.1 µM",85.3%
same,"viability, T/C","second compound 0.3 µM, first compound 0.316 µM",93.6%
same,"viability, T/C","second compound 0.3 µM, first compound 1 µM",94.5%
same,"viability, T/C","second compound 0.3 µM, first compound 3.16 µM",90.2%
same,"viability, T/C","second compound 0.3 µM, first compound 10 µM",101%
same,"viability, T/C","second compound 0.949 µM, first compound 0.0316 µM",77.7%
same,"viability, T/C","second compound 0.949 µM, first compound 0.1 µM",71%
same,"viability, T/C","second compound 0.949 µM, first compound 0.316 µM",90.6%
same,"viability, T/C","second compound 0.949 µM, first compound 1 µM",77.7%
same,"viability, T/C","second compound 0.949 µM, first compound 3.16 µM",81%
same,"viability, T/C","second compound 0.949 µM, first compound 10 µM",117%
same,"viability, T/C","second compound 3 µM, first compound 0.0316 µM",85.9%
same,"viability, T/C","second compound 3 µM, first compound 0.1 µM",76.5%
same,"viability, T/C","second compound 3 µM, first compound 0.316 µM",59%
same,"viability, T/C","second compound 3 µM, first compound 1 µM",75.8%
same,"viability, T/C","second compound 3 µM, first compound 3.16 µM",79.8%
same,"viability, T/C","second compound 3 µM, first compound 10 µM",89.1%
COc1c(OCCCN2CCOCC2)ccc2c3n(c(=NC(=O)c4cnc(N)nc4)nc12)CCN3 + CNC(C)C(=O)NC1CN(S(=O)(=O)c2cccc(S(=O)(=O)N3CCC4CCC(C(=O)NC(c5ccccc5)c5ccccc5)N4C(=O)C(NC(=O)C(C)NC)C3)c2)CCC2CCC(C(=O)NC(c3ccccc3)c3ccccc3)N2C1=O,pIC50,"curve of first compound, second compound 0.00316 µM",7.77
same,pIC50,"curve of first compound, second compound 0.01 µM",7.53
same,pIC50,"curve of first compound, second compound 0.0316 µM",7.61
same,pIC50,"curve of first compound, second compound 0.1 µM",7.81
same,pIC50,"curve of first compound, second compound 0.316 µM",7.88
same,pIC50,"curve of first compound, second compound 1 µM",8.00
same,"viability, T/C","second compound 0.00316 µM, first compound 0.00316 µM",89.4%
same,"viability, T/C","second compound 0.00316 µM, first compound 0.01 µM",66.3%
same,"viability, T/C","second compound 0.00316 µM, first compound 0.0316 µM",28.6%
same,"viability, T/C","second compound 0.00316 µM, first compound 0.1 µM",24.9%
same,"viability, T/C","second compound 0.00316 µM, first compound 0.316 µM",9.54%
same,"viability, T/C","second compound 0.00316 µM, first compound 1 µM",5.55%
same,"viability, T/C","second compound 0.01 µM, first compound 0.00316 µM",81.5%
same,"viability, T/C","second compound 0.01 µM, first compound 0.01 µM",71.1%
same,"viability, T/C","second compound 0.01 µM, first compound 0.0316 µM",49.9%
same,"viability, T/C","second compound 0.01 µM, first compound 0.1 µM",18.6%
same,"viability, T/C","second compound 0.01 µM, first compound 0.316 µM",10.2%
same,"viability, T/C","second compound 0.01 µM, first compound 1 µM",5.07%
same,"viability, T/C","second compound 0.0316 µM, first compound 0.00316 µM",104%
same,"viability, T/C","second compound 0.0316 µM, first compound 0.01 µM",61.6%
same,"viability, T/C","second compound 0.0316 µM, first compound 0.0316 µM",57.1%
same,"viability, T/C","second compound 0.0316 µM, first compound 0.1 µM",19.4%
same,"viability, T/C","second compound 0.0316 µM, first compound 0.316 µM",9.82%
same,"viability, T/C","second compound 0.0316 µM, first compound 1 µM",4.9%
same,"viability, T/C","second compound 0.1 µM, first compound 0.00316 µM",90.1%
same,"viability, T/C","second compound 0.1 µM, first compound 0.01 µM",59.8%
same,"viability, T/C","second compound 0.1 µM, first compound 0.0316 µM",32.2%
same,"viability, T/C","second compound 0.1 µM, first compound 0.1 µM",25.8%
same,"viability, T/C","second compound 0.1 µM, first compound 0.316 µM",13.8%
same,"viability, T/C","second compound 0.1 µM, first compound 1 µM",5.12%
same,"viability, T/C","second compound 0.316 µM, first compound 0.00316 µM",78.7%
same,"viability, T/C","second compound 0.316 µM, first compound 0.01 µM",52.2%
same,"viability, T/C","second compound 0.316 µM, first compound 0.0316 µM",39.3%
same,"viability, T/C","second compound 0.316 µM, first compound 0.1 µM",19.8%
same,"viability, T/C","second compound 0.316 µM, first compound 0.316 µM",11.1%
same,"viability, T/C","second compound 0.316 µM, first compound 1 µM",5.92%
same,"viability, T/C","second compound 1 µM, first compound 0.00316 µM",65.7%
same,"viability, T/C","second compound 1 µM, first compound 0.01 µM",51%
same,"viability, T/C","second compound 1 µM, first compound 0.0316 µM",32%
same,"viability, T/C","second compound 1 µM, first compound 0.1 µM",21.2%
same,"viability, T/C","second compound 1 µM, first compound 0.316 µM",10.2%
same,"viability, T/C","second compound 1 µM, first compound 1 µM",5.66%
